Assay results published in the CheMixHub viscosity set.
Several values for one entry are separate records, joined by “and”; a condition that tells them apart may be missing. Identical values can stand only once.

Assay: xn = mol fraction of the nth substance listed

CCOC(=O)C(Br)CC (configuration not stated) + CCCCCC
303.15 K, 101 kPa
Conditions	viscosity [mPa·s]
x1 = 0.1972	0.3726
x1 = 0.3889	0.5074
x1 = 0.4924	0.6029
x1 = 0.5981	0.7246
x1 = 0.7949	1.032

CCCCCCC(C)O (configuration not stated) + CCCCCCCC
298.15 K, 101 kPa
Conditions	viscosity [mPa·s]
x2 = 0.0487	5.956
x2 = 0.1002	5.301
x2 = 0.1498	4.654
x2 = 0.2006	3.998
x2 = 0.2516	3.364
x2 = 0.3003	2.796
x2 = 0.3538	2.228
x2 = 0.4003	1.79
x2 = 0.4466	1.411
x2 = 0.5001	1.049
x2 = 0.5517	0.778
x2 = 0.6002	0.59
x2 = 0.6539	0.454
x2 = 0.6994	0.39
x2 = 0.7449	0.366
x2 = 0.8	0.376
x2 = 0.8465	0.402
x2 = 0.9003	0.434
x2 = 0.9521	0.441

CCCCCCC(C)O (configuration not stated) + CCCCCCCCCCCC
298.15 K, 101 kPa
Conditions	viscosity
x1 = 0.0003	1.337 mPa·s
x2 = 0.0554	5.513 mPa·s and 5.51 mPa·s
x2 = 0.0999	4.916 mPa·s and 4.92 mPa·s
x2 = 0.1554	4.254 mPa·s and 4.25 mPa·s
x2 = 0.1998	3.786 mPa·s and 3.79 mPa·s
x2 = 0.2555	3.272 mPa·s and 3.27 mPa·s
x2 = 0.2998	2.916 mPa·s and 2.92 mPa·s
x2 = 0.3554	2.532 mPa·s and 2.53 mPa·s
x2 = 0.3998	2.27 mPa·s and 2.27 mPa·s
x2 = 0.4554	1.995 mPa·s and 2 mPa·s
x2 = 0.4999	1.813 mPa·s and 1.81 mPa·s
x2 = 0.5555	1.627 mPa·s and 1.63 mPa·s
x2 = 0.5998	1.508 mPa·s and 1.51 mPa·s
x2 = 0.6555	1.391 mPa·s and 1.39 mPa·s
x2 = 0.6998	1.32 mPa·s and 1.32 mPa·s
x2 = 0.7554	1.253 mPa·s and 1.25 mPa·s
x2 = 0.7998	1.213 mPa·s and 1.21 mPa·s
x2 = 0.8555	1.176 mPa·s and 1.18 mPa·s
x2 = 0.8999	1.152 mPa·s and 1.15 mPa·s
x2 = 0.9555	1.124 mPa·s and 1.12 mPa·s

CCCCCCC(C)O (configuration not stated) + CCCCCCCCCCCCCC
298.15 K, 101 kPa
Conditions	viscosity [mPa·s]
x1 = 0.0003	2.081
x2 = 0.0555	5.619
x2 = 0.0999	5.163
x2 = 0.1555	4.632
x2 = 0.1998	4.238
x2 = 0.2554	3.786
x2 = 0.2998	3.455
x2 = 0.3555	3.081
x2 = 0.3999	2.813
x2 = 0.4554	2.519
x2 = 0.4999	2.314
x2 = 0.5555	2.098
x2 = 0.5998	1.957
x2 = 0.6554	1.82
x2 = 0.7	1.741
x2 = 0.7555	1.683
x2 = 0.8	1.668
x2 = 0.8555	1.688
x2 = 0.9	1.736
x2 = 0.9553	1.835

CCCCCCCCCC(=O)O + CCCCCCCCCCCCCC
100 kPa, x2 = 0.8601
Conditions	viscosity [mPa·s]
298.2 K	2.37
308.2 K	1.9
318.2 K	1.54

CCCCCCCCCC(=O)O + CCCCCCCCCCCCCCC
100 kPa, x2 = 0.8127
Conditions	viscosity [mPa·s]
298.2 K	2.95
308.2 K	2.29
318.2 K	1.83

CCCCCCCCCC(=O)O + CCCCCCCCCCCCCCCC
100 kPa, x2 = 0.6321
Conditions	viscosity [mPa·s]
298.2 K	4.1
308.2 K	3.09
318.2 K	2.41

CCCCCCCCCC(=O)O + CCCCCCCCCCCCCCCCC
100 kPa, x2 = 0.5591
Conditions	viscosity [mPa·s]
298.2 K	4.83
308.2 K	3.6
318.2 K	2.77

O=C(c1ccccc1)c1ccccc1 + CCCCCOC(C)=O
298.15 K, 101 kPa
Conditions	viscosity [mPa·s]
x1 = 0.0417	0.8506
x1 = 0.0472	0.8646

c1c[nH]cn1 + CCCC[N+](CCCC)(CCCC)CCCC.[Br-]
101.3 kPa, x2 = 0.3
Conditions	viscosity [mPa·s]
293.15 K	810
296.15 K	540
303.15 K	314
313.15 K	144.8
323.15 K	75

c1ccncc1 + CCCCn1cc[n+](C)c1.F[B-](F)(F)F
Conditions	viscosity [mPa·s]
298.15 K, 101 kPa, x1 = 0.1059	81.9

c1ccncc1 + CCCO
101 kPa
Conditions	viscosity [mPa·s]
303.15 K, x1 = 0.2999	1.165
303.15 K, x1 = 0.5	0.9865
308.15 K, x1 = 0.2999	1.065
313.15 K, x1 = 0.1001	1.205
323.15 K, x1 = 0.3998	0.7875

NCCNCCNCCN + CCO
313.15 K, 100 kPa
Conditions	viscosity [mPa·s]
x1 = 0.02	0.94
x1 = 0.034	1.1
x1 = 0.073	1.47
x1 = 0.17	2.67

c1ccncc1 + CCO
298.15 K, 101 kPa
Conditions	viscosity [mPa·s]
x1 = 0.2992	1.034
x1 = 0.4997	0.9591
x1 = 0.6607	0.8792
x1 = 0.7996	0.8773
